The source of these data is ChEMBL document CHEMBL1667814 (Bioorg Med Chem, 2011).

In assay [1] the target is Acetylcholinesterase (Electrophorus electricus, UniProt O42275).
Description: Inhibition of electric eel AChE by Ellman's method
For assay [2], the target named is Cholinesterase (Equus caballus, UniProt P81908).
Sequence of Cholinesterase (P81908 whole entry): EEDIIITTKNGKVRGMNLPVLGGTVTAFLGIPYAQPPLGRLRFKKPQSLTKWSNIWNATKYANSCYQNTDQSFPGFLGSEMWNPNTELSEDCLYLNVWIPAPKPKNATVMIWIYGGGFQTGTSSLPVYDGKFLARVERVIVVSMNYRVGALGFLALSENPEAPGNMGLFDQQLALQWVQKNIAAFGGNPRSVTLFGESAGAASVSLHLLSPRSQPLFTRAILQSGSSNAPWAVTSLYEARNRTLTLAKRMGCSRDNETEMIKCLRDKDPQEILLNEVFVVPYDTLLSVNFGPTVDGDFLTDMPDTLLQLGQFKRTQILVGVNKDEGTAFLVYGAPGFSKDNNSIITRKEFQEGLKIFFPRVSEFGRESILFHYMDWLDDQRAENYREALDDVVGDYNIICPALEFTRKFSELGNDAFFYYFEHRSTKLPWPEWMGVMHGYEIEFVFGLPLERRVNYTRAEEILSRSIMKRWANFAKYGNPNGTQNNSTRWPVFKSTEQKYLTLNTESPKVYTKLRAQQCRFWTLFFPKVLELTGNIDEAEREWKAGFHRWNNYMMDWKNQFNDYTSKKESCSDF
Description: Inhibition of equine serum BChE by Ellman's method

Sequence of Acetylcholinesterase (O42275 whole entry): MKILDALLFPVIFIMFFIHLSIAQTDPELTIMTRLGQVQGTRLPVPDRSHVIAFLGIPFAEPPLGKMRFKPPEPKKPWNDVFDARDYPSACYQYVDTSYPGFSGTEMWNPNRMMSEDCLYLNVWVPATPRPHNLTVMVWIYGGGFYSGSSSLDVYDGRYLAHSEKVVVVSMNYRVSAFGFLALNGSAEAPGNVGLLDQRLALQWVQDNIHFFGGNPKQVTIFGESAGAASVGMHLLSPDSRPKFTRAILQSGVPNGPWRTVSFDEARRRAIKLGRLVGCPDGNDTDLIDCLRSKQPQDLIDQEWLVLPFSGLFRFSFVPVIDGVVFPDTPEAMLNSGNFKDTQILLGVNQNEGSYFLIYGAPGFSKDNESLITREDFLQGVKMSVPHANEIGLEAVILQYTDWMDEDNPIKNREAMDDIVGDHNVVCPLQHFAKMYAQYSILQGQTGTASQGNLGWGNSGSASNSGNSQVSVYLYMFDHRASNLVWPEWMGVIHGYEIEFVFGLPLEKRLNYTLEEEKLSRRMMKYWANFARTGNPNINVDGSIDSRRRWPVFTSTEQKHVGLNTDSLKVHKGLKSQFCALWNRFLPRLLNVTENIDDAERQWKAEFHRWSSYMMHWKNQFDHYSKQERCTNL

With `CC(=O)N(CCCCN=c1c2ccccc2nc2n1CCCCCC2)CCCN=c1c2ccccc2nc2n1CCCCCC2`, the IC50 is 177 nM in assay [1] (read-out: IC50) and 43.1 nM in assay [2].
As to `CC(=O)N(CCCCN=c1c2ccccc2nc2n1CCC2)CCCN=c1c2ccccc2nc2n1CCC2`, the IC50 in assay [1] (read-out: IC50) came out at 20.9 nM; in assay [2], 4 nM.
For `CN(CCCCN=c1c2ccccc2nc2n1CCC2)CCCN=c1c2ccccc2nc2n1CCC2`, the IC50 in assay [1] (read-out: IC50) turned out to be 561 nM; in assay [2], 81.3 nM.
In the case of `CC(C)CC(=O)N(CCCCN=c1c2ccccc2nc2n1CCCCCC2)CCCN=c1c2ccccc2nc2n1CCCCCC2`, the IC50 came to 621 nM in assay [1] (read-out: IC50) and 8.1 nM in assay [2].
On to `CC(C)(C)C(=O)N(CCCCN=c1c2ccccc2nc2n1CCCCCC2)CCCN=c1c2ccccc2nc2n1CCCCCC2`, for which the IC50 in assay [1] (read-out: IC50) was 536 nM; in assay [1] (read-out: pIC50 (converted)), 53.6 nM; in assay [2] it was 25.5 nM.
For the compound `c1ccc(C/N=c2/c3ccccc3nc3n2CCCCCC3)cc1`, the IC50 in assay [1] (read-out: IC50) is greater than 500000 nM; in assay [2] it was 1100 nM.
In the case of `CN(CCCCN=c1c2ccccc2nc2n1CCCCCC2)CCCN=c1c2ccccc2nc2n1CCCCCC2`, the IC50 in assay [1] (read-out: IC50) is 606 nM; in assay [2], 51.4 nM.
The matching figures for `CCC(=O)N(CCCCN=c1c2ccccc2nc2n1CCC2)CCCN=c1c2ccccc2nc2n1CCC2`: 18 nM and 5.9 nM.
For the compound `c1ccc2c(=NCCCCCCCCN=c3c4ccccc4nc4n3CCCCCC4)n3c(nc2c1)CCCCCC3`, the IC50 in assay [1] (read-out: IC50) is 14400 nM; in assay [2] it was 76 nM.
With `CC(=O)NCC(=O)N(CCCCN=c1c2ccccc2nc2n1CCCCCC2)CCCN=c1c2ccccc2nc2n1CCCCCC2`, the IC50 in assay [1] (read-out: IC50) came out at 75.6 nM; in assay [2], 122 nM.
As for `c1ccc2c(=NCCCCCCC/N=c3\c4ccccc4nc4n3CCCCCC4)n3c(nc2c1)CCCCCC3`, the results for the IC50 in assay [1] (read-out: IC50) and in assay [2] were 65 nM and 27 nM, respectively.
As for `c1ccc2c(=NCCCCCCCCN=c3c4ccccc4nc4n3CCC4)n3c(nc2c1)CCC3`, the IC50 in assay [1] (read-out: IC50) is 58 nM; in assay [2], 4.8 nM.
For `c1ccc(C/N=c2/c3ccccc3nc3n2CCC3)cc1`, in that order: 13900 nM and 1900 nM.
Turning to `c1ccc2/c(=N\CCCCCCC/N=c3\c4ccccc4nc4n3CCC4)n3c(nc2c1)CCC3`, the IC50 stood at 79 nM in assay [1] (read-out: IC50) and 88 nM in assay [2].
Take `CCC(=O)N(CCCCN=c1c2ccccc2nc2n1CCCCCC2)CCCN=c1c2ccccc2nc2n1CCCCCC2`: the IC50 in assay [1] (read-out: IC50) came to 289 nM; in assay [2], 46.3 nM.
For `CC(C)CCC(=O)N(CCCCN=c1c2ccccc2nc2n1CCCCCC2)CCCN=c1c2ccccc2nc2n1CCCCCC2`, the IC50 in assay [1] (read-out: IC50) came out at 792 nM; in assay [2] it was 3 nM.
For `CC(=O)N(CCCN=c1c2ccccc2nc2n1CCCCCC2)CCC/N=c1\c2ccccc2nc2n1CCCCCC2`, in that order: 49 nM and 72.7 nM.
On to `CN(CCCN=c1c2ccccc2nc2n1CCCCCC2)CCC/N=c1\c2ccccc2nc2n1CCCCCC2`, for which the IC50 in assay [1] (read-out: IC50) was found to be 203 nM; in assay [2], 197 nM.
On to `C=C(C)C(=O)N(CCCCN=c1c2ccccc2nc2n1CCC2)CCCN=c1c2ccccc2nc2n1CCC2`, for which the IC50 is 6.7 nM in assay [1] (read-out: IC50) and 10.6 nM in assay [2].
For `C=C(C)C(=O)N(CCCCN=c1c2ccccc2nc2n1CCCCCC2)CCCN=c1c2ccccc2nc2n1CCCCCC2`, the IC50 in assay [1] (read-out: IC50) turned out to be 153 nM; in assay [2] it was 37.7 nM.
As to `CCCCC(=O)N(CCCCN=c1c2ccccc2nc2n1CCCCCC2)CCCN=c1c2ccccc2nc2n1CCCCCC2`, the IC50 in assay [1] (read-out: IC50) was found to be 1060 nM; in assay [2], 12.9 nM.
As to `CN(CCCN=c1c2ccccc2nc2n1CCC2)CCC/N=c1\c2ccccc2nc2n1CCC2`, the IC50 in assay [1] (read-out: IC50) came out at 541 nM; in assay [2] it was 547 nM.
With `CC(=O)N(CCCN=c1c2ccccc2nc2n1CCC2)CCC/N=c1\c2ccccc2nc2n1CCC2`, the IC50 was found to be 331 nM in assay [1] (read-out: IC50) and 267 nM in assay [2].
